Test results reported in the NIST ThermoML archive (doi:10.1021/je100832h).

Details: Liquid; for mass density: 101.32 kPa, Vibrating tube method

CCCCCCC [heptane]
Details	mass density [kg/m3]
291.15 K	685.28
298.15 K	679.48
318.15 K	662.06
328.15 K	653.6

Ebulliometric method (Recirculating still)
Details	vapor or sublimation pressure [kPa]
305.26 K	8.32
310.22 K	10.55
314.93 K	13.09
316.5 K	14.07
319.71 K	16.19
323.62 K	19.1
326.44 K	21.45
329.04 K	23.79
331.48 K	26.14
333.21 K	27.97
335.5 K	30.51
337.48 K	32.84
339.56 K	35.53
341.35 K	37.87
342.96 K	40.12
344.47 K	42.35
346.04 K	44.75
347.28 K	46.71
348.72 K	49.09
350.12 K	51.49
351.21 K	53.41
352.49 K	55.76
353.62 K	57.88
354.79 K	60.18
356.25 K	63.11
357.84 K	66.42
358.68 K	68.27
359.98 K	71.15
361.33 K	74.25
362.3 K	76.55
363.32 K	79
364.24 K	81.28
365.32 K	84.05
366.2 K	86.3
366.87 K	88.1
367.97 K	91.09
368.83 K	93.46
369.84 K	96.33
370.85 K	98.98
371.11 K	100
371.35 K	100.68
371.56 K	101.32
372.42 K	103.92
373.25 K	106.48
373.98 K	108.71
374.93 K	111.77
375.41 K	113.35
376.29 K	116.21
377.17 K	119.14
377.51 K	120.32
378.49 K	123.7
379.37 K	126.8
380.26 K	130
380.83 K	132.04
392.89 K	182.39
393.79 K	186.6
394.43 K	189.67
395.1 K	192.97
395.73 K	196.04
396.09 K	197.85
396.5 K	199.97

CCCCCCCC [octane]
Details	mass density [kg/m3]
291.15 K	704.13
298.15 K	698.6
318.15 K	682.16
328.15 K	674.15

Ebulliometric method (Recirculating still)
Details	vapor or sublimation pressure [kPa]
350.64 K	21.09
353.05 K	23.14
355.76 K	25.56
356.97 K	26.7
358.82 K	28.55
361.59 K	31.58
363.86 K	34.16
365.82 K	36.53
367.65 K	38.88
369.09 K	40.82
370.77 K	43.19
372.39 K	45.57
374.01 K	48.04
375.61 K	50.59
377 K	52.9
378.25 K	55.02
380.03 K	58.2
381.34 K	60.63
382.42 K	62.68
383.64 K	65.07
384.76 K	67.34
386.29 K	70.52
387.45 K	73.02
388.55 K	75.43
389.65 K	77.94
390.56 K	80.05
391.6 K	82.51
392.6 K	84.94
393.47 K	87.09
394.37 K	89.39
395.14 K	91.38
396.04 K	93.64
396.95 K	96.14
397.9 K	98.73
398.19 K	99.59
398.59 K	100.68
398.83 K	101.32
399.61 K	103.61
400.53 K	106.23
401.23 K	108.3
402.03 K	110.71
402.81 K	113.09
403.32 K	114.65
403.81 K	116.17
404.1 K	117.1
404.79 K	119.25
405.51 K	121.6
406.27 K	124.1
407.03 K	126.61
407.89 K	129.5
408.75 K	132.46
409.62 K	135.53
410.15 K	137.42
410.83 K	139.87
422.1 K	185.56
422.64 K	188.02
423.26 K	190.85
423.76 K	193.15
424.15 K	195.02
424.76 K	197.87
425.2 K	199.97

CCCCCCCCCC [decane]
Details	mass density [kg/m3]
291.15 K	731.22
298.15 K	726.2
318.15 K	710.9
328.15 K	703.34

Ebulliometric method (Recirculating still)
Details	vapor or sublimation pressure [kPa]
386.86 K	15.86
390.21 K	17.94
393.85 K	20.43
397.62 K	23.28
400.9 K	26.08
403.65 K	28.54
406.2 K	31.1
408.52 K	33.59
411.2 K	36.58
413.6 K	39.44
414.92 K	41.05
416.83 K	43.54
419.01 K	46.44
420.74 K	48.95
422.51 K	51.55
424.11 K	54.05
425.85 K	56.84
427.5 K	59.6
429.13 K	62.41
430.69 K	65.23
432.29 K	68.16
433.61 K	70.76
435.15 K	73.71
436.57 K	76.61
437.52 K	78.69
438.92 K	81.7
440.19 K	84.46
441.29 K	86.98
442.23 K	89.2
443.35 K	91.83
444.37 K	94.3
444.8 K	95.2
446.16 K	98.41
446.55 K	99.37
446.97 K	100.62
447.3 K	101.32
448.21 K	103.75
449.29 K	106.58
450.33 K	109.39
451.31 K	112.15
452.1 K	114.36
452.89 K	116.67
453.87 K	119.46
454.7 K	121.94
455.13 K	123.25
455.92 K	125.63
456.82 K	128.4
457.59 K	130.81
458.4 K	133.37
459.16 K	135.82
460.02 K	138.64
460.42 K	140
461.26 K	142.82
462.1 K	145.65
463.1 K	148.84
463.75 K	151.4
464.39 K	153.69
465.12 K	156.4
465.77 K	158.65
466.55 K	161.57
467.33 K	164.47
468.04 K	167.22
468.81 K	170.16
469.38 K	172.45
470.03 K	175.03
470.6 K	177.34
471.2 K	179.77
471.77 K	182.08
472.23 K	184.14
472.78 K	186.39
473.35 K	188.8
474.12 K	191.58
474.81 K	194.61
475.37 K	197.04

CCCCCC [hexane]
Details	mass density [kg/m3]
291.15 K	661.17
298.15 K	654.9
318.15 K	636.5
328.15 K	627

Ebulliometric method (Recirculating still)
Details	vapor or sublimation pressure [kPa]
292.98 K	15.88
296.27 K	18.39
298.95 K	20.69
302.2 K	23.81
304.49 K	26.19
306.76 K	28.77
308.28 K	30.68
310.14 K	32.97
311.96 K	35.53
313.7 K	37.95
315.07 K	40.1
316.51 K	42.3
317.91 K	44.59
319.58 K	47.35
320.83 K	49.63
322.02 K	51.87
323.45 K	54.51
324.35 K	56.42
325.74 K	59.15
327.09 K	62.05
327.99 K	64.02
329.13 K	66.61
330.14 K	68.93
330.93 K	70.86
331.87 K	73.11
332.87 K	75.62
333.77 K	78.04
334.61 K	80.11
335.65 K	82.94
336.53 K	85.4
337.38 K	87.73
338.26 K	90.28
339.25 K	93.18
340.1 K	95.79
340.92 K	98.28
341.17 K	99.08
341.6 K	100.39
341.88 K	101.32
342.34 K	102.83
343.01 K	104.95
343.62 K	106.98
344.52 K	110.01
344.69 K	110.65
345.43 K	113.16
346.05 K	115.31
346.66 K	117.46
347.36 K	119.99
348.05 K	122.52
348.44 K	124.01
349.04 K	126.23
349.61 K	128.44
349.82 K	129.32
350.34 K	131.23
350.82 K	133.07
351.42 K	135.49
351.93 K	137.54
352.53 K	139.99
352.83 K	141.31
353.22 K	142.8
353.87 K	145.75
354.23 K	147.04
354.71 K	149.34
355.4 K	152.14
355.66 K	153.31
356.04 K	155.14
356.52 K	157.29
357.01 K	159.38
357.38 K	161.05
357.8 K	162.94
358.47 K	166.02
358.88 K	167.98
359.18 K	169.31
359.69 K	171.84
359.9 K	172.89
360.51 K	175.78
360.8 K	177.31
361.09 K	178.67
361.54 K	180.95
361.86 K	182.61
362.43 K	185.32
362.68 K	186.64
362.98 K	188.2
363.52 K	191.05
363.95 K	193.35

CCOC(C)=O [ethyl acetate]
Details	mass density [kg/m3]
291.15 K	902.88
298.15 K	894.4
318.15 K	869.6
328.15 K	857.17

Ebulliometric method (Recirculating still)
Details	vapor or sublimation pressure [kPa]
297.17 K	11.89
303.35 K	16.04
306.25 K	18.33
308.86 K	20.64
310.67 K	22.44
312.53 K	24.34
315.44 K	27.63
318.46 K	31.33
321.01 K	34.85
323.47 K	38.43
324.8 K	40.61
327.41 K	44.98
329.77 K	49.27
331.51 K	52.56
333.07 K	55.72
335.02 K	59.91
336.33 K	62.83
337.91 K	66.49
339.09 K	69.34
340.23 K	72.26
341.69 K	76.02
343.03 K	79.83
344.11 K	82.56
345.53 K	86.85
346.86 K	90.81
348.09 K	94.63
348.75 K	96.74
349.45 K	98.97
349.56 K	99.36
349.76 K	100.07
349.93 K	100.68
350.15 K	101.32
351.12 K	104.65
351.77 K	106.84
352.12 K	108.13
352.94 K	111.21
353.91 K	114.65
354.43 K	116.46
354.93 K	118.56
355.5 K	120.68
355.91 K	122.31
356.37 K	124
357.35 K	127.89
357.92 K	130
358.74 K	133.45
359.44 K	136.34
360.03 K	139.07
360.88 K	142.55
361.73 K	146.37
362.62 K	150.43
363.72 K	155.58
364.25 K	157.94
364.81 K	160.53
365.52 K	163.99
366.29 K	167.81
367 K	171.33
367.64 K	174.65
367.98 K	176.37
368.83 K	180.88
369.49 K	184.43
370.07 K	187.47
370.69 K	190.92
371.5 K	195.35

CCCCC [pentane]
Details	mass density [kg/m3]	vapor or sublimation pressure [kPa]
291.15 K	628.22	–
298.15 K	621.35	–
309.3 K	–	101.32
